Test results as given in patent US8921414B2, “Spiroketals” (EcoBiotics Ltd, priority 2005, dated 2014).
Converted amounts (≈) assume the structure as drawn.

Tests used:
MM96L melanoma = assay: Cell growth inhibition (Table 22), MM96L; format: cell-based; conditions: Homo sapiens, read-out: IC50 (drug dose which inhibits cell growth by 50%) MM96L
Description: (§1) The isolated compounds were tested against a number of human and non-human cancer cell lines. The human tumor cell lines were: MCF-7, MDA-MB-231 and T47D, breast cancer; DU145 and PC3, prostate cancer; CI80-13S, ovarian cancer; MM96L, D04, SkMel5, MM418c5 melanoma; HT29, colon cancer; K562 and HL60, leukemia. Mouse cell lines were the B16 mouse melanoma and LK2 UV-induced squamous cell carcinoma (SCC). Neonatal foreskin fibroblasts (NFF) were used as normal control cells. Cells were cultured at 37° C. in 5% carbon dioxide/air, in RPMI 1640 medium containing 10% fetal calf serum.

DU145 prostate cancer = assay: Cell growth inhibition (Table 22), DU145; format: cell-based; conditions: Homo sapiens, DU-145; read-out: IC50 (drug dose which inhibits cell growth by 50%) DU145
Description: as §1

ovarian C180-13S = assay: Additional in vitro activity: antitumor activity, C180-13S; format: cell-based, human; conditions: concentration with activity
[1] = system: normal human fibroblasts (NFF); assay: Additional in vitro activity: cytotoxic activity, NFF; format: cell-based; conditions: concentration with activity
melanoma MM96L = assay: Additional in vitro activity: antitumor activity, MM96L; format: cell-based, human; conditions: concentration with activity
K562 leukemia = assay: Cell growth inhibition (Table 22), K562; format: cell-based; conditions: Homo sapiens, read-out: IC50 (drug dose which inhibits cell growth by 50%) K562
Description: as §1

CI80-13S ovarian cancer = assay: Cell growth inhibition (Table 22), C180-13S; format: cell-based; conditions: Homo sapiens, read-out: IC50 (drug dose which inhibits cell growth by 50%) C180-13S
Description: as §1

[2] = system: Neonatal foreskin fibroblasts (NFF); assay: Cell growth inhibition (Table 22), NFF; format: cell-based; conditions: Homo sapiens, read-out: IC50 (drug dose which inhibits cell growth by 50%) NFF
Description: as §1

MCF-7 breast cancer = assay: Cell growth inhibition (Table 22), MCF7; format: cell-based; conditions: Homo sapiens, read-out: IC50 (drug dose which inhibits cell growth by 50%) MCF7
Description: as §1

[3] = system: NS1 murine myeloma cell line; assay: CyTOX (Cy) cytotoxicity bioassay; format: cell-based; conditions: weight of chemical in last well with activity; real value may be lower
Excerpt: CyTOX (alternatively referred to herein as Cy) is a microtitre plate bioassay use to identify potential antitumor actives. CyTOX is a chromogenic bioassay with broad application to a wide range of tumor and non-tumor cell lines. […] CyTOX features a liquid media into which the test compound has been incorporated together with a novel chromogen. As the cells grow and divide the chromogen is metabolised from purple in a single step process to a colourless metabolite. CyTOX is routinely undertaken using NS1 murine myeloma cell line as a guide to mammalian cell toxicity. Briefly, in CyTOX the cells were applied to the media containing the test chemical and allowed to grow for 72 hours. The assay was monitored at 24, 48 and 72 hours and the active wells identified.

Giardia spp. = assay: TriTOX (Gi) anti-protozoan bioassay; format: cell-based; conditions: weight of chemical in last well with activity; real value may be lower
Excerpt: TriTOX (alternatively referred to herein as Gi) is a microtitre plate based chromogenic bioassay for the screening of anti-protozoan activity of pathogenic, anaerobic/microaerophilic protozoans for example Giardia spp. and Trichomonas spp. The bioassays are run under anaerobic conditions and features species specific chromogens. […] Aliquots of each concentration(s) are applied to the wells of 96-well microtitre plates and diluted with media. […] The lowest concentration at which the compound is active is noted as the minimum inhibitory concentration (MIC). Additionally, microscopic inspection is carried out to identify any patterns of morphological change that may be consistent with a type of toxicity and therefore mode of action. Giardia spp. was utilized for this assay.

prostate DU145 = assay: Additional in vitro activity: antitumor activity, DU145; format: cell-based, human; conditions: concentration with activity
breast MCF-7 = assay: Additional in vitro activity: antitumor activity, MCF-7; format: cell-based, human; conditions: concentration with activity
Drosophila melanogaster = assay: DipteraTOX insecticidal bioassay; parameters: key: A value of A in DipG, Dip P or Dip H represents very active; a value of P represents active; conditions: 250 μg per mL in agar
Description: DipteraTOX. DipteraTOX is referred to herein as DipG, DipP and DipH. DipG represents no grazing of larva. DipP represents no pupae formation and Dip H represents no hatching of flies. A value of A in DipG, Dip P or Dip H represents very active and a value of P represents active. In DipteraTox the fly eggs are applied to the surface of an agar matrix containing 250 μg per mL of the test chemical and allowed to hatch, develop and pupate for a period up of two weeks. The assay was monitored at two discrete times to determine the extent of grazing of the agar matrix at Week 1 and the presence of adult flies at Week 2. […] Drosophila melanogaster was utilised for this assay.

Bacillus subtilis = assay: ProTOX (Bs) antibacterial bioassay; format: cell-based; conditions: weight of chemical in last well with activity; real value may be lower
Excerpt: ProTOX, (alternatively referred to herein as Bs) is an antibacterial bioassay, broadly applicable to most aerobic and anaerobic bacteria. The bioassay features a solid phase agar base into which the test compound has been incorporated together with a chromogen. As the bacteria multiply in the well, the chromogen is metabolised from blue in a two-step process to a colourless compound. Compounds with potent bactericidal activity inhibit bacterial metabolism of the chromogen while bacteriostatic compounds induce limited metabolism as indicated by an intermediate pink colour. ProTOX is broadly applicable to a range of gram-positive and gram-negative bacteria under aerobic and microaerophilic conditions. ProTOX assays were carried out using Bacillus subtilis. Briefly, in ProTOX, the bacteria (24 hour broth) were applied to the surface of an agar matrix containing the test sample and allowed to grow for 48 h. The assay was monitored at 24 and 48 hours and the active wells noted. Known antibiotics yield consistent colour transitions which are concentration and time dependent. These patterns provided an important guide to the early recognition of interesting characteristics.

leukemia K562 = assay: Additional in vitro activity: antitumor activity, K562; format: cell-based, human; conditions: concentration with activity
melanoma MM418c5 = assay: Additional in vitro activity: antitumor activity, MM418c5; format: cell-based, human; conditions: concentration with activity
tumor cells = assay: Cell arrest, comparison of ethacrynic acid with EBI-23; format: cell-based

| Structure (SMILES) | IC50 (MM96L melanoma) [µg/mL] | IC50 (DU145 prostate cancer) [µg/mL] | antitumor activity against ovarian C180-13S at (ovarian C180-13S) [µg/mL] | cytotoxic activity against normal human fibroblasts (NFF) at [1] [µg/mL] | antitumor activity against melanoma MM96L at (melanoma MM96L) [µg/mL] | IC50 (K562 leukemia) [µg/mL] | IC50 (CI80-13S ovarian cancer) [µg/mL] | IC50 [2] [µg/mL] | IC50 (MCF-7 breast cancer) [µg/mL] | Cy LD99 [3] [µg/mL] | Gi LD99 (Giardia spp.) [µg/mL] | antitumor activity against prostate DU145 at (prostate DU145) [µg/mL] | antitumor activity against breast MCF-7 at (breast MCF-7) [µg/mL] | DipH (no hatching of flies) (Drosophila melanogaster) | Bs LD99 (Bacillus subtilis) [µg/mL] | antitumor activity against leukemia K562 at (leukemia K562) [µg/mL] | antitumor activity against melanoma MM418c5 at (melanoma MM418c5) [µg/mL] | fold higher concentration than EBI-23 to achieve cell arrest (tumor cells) [fold] | selectivity against tumor cells (tumor cells) |
| --- | --- | --- | --- | --- | --- | --- | --- | --- | --- | --- | --- | --- | --- | --- | --- | --- | --- | --- | --- |
| CCCCCCCCCCCCCC(CC1C=CCC2(CC3OC(=O)C=CC3O2)O1)OC(C)=O (stereo not shown) [EBI-42] | 6 (≈ 12.6 µM) | > 10 | 10 | > 10 | 10 | > 10 | 6 (≈ 12.6 µM) | > 10 | 6 (≈ 12.6 µM) | – | – | – | – | – | – | – | – | – | – |
| CCCCCCCCCCCCCC(CC1CC(O)CC2(CC3OC(=O)C=CC3O2)O1)OC(C)=O (stereo not shown) [EBI-25] | 1.6 (≈ 3.23 µM) | 1 (≈ 2.02 µM) | 3 | 30 | 10 | 6.1 (≈ 12.3 µM) | 5 (≈ 10.1 µM) | 3 (≈ 6.06 µM) | 0.34 (≈ 0.687 µM) | 1.6 | 50 | 30 | 300 | P | 25 | 30 | 10 | – | – |
| C=C(CC)C(=O)c1ccc(OCC(=O)O)c(Cl)c1Cl [ethacrynic acid] | – | – | – | – | – | – | – | – | – | – | – | – | – | – | – | – | – | 10 | no selectivity |
